Measurements reported in patent publication US9023789B2, “Amylin analogs and pharmaceutical compositions thereof” (Novo Nordisk A/S, priority 2012, dated 2015).
Like-named read-outs stand apart in the source and are kept apart here. Numbered stars: 1 amine (or outer) side, 2 acyl side, 3 side chain; on linkers, the order of the positions; unused ones are H or OH. Bridge positions count the residues as written; N and C are the ends. Side chains are listed from the residue outwards. Peptide text beside a SMILES is read from it. * marks the point of attachment. C20 diacid = O=C(O)CCCCCCCCCCCCCCCCCCC(=O)*; γGlu = O=C(O)[C@H](CCC(=O)[*:2])N[*:1]

Key:
rat calcitonin receptor = biological target: T1, rat calcitonin receptor (Rattus norvegicus, UniProt P32214); assay: ASSAY (VIII) binding to the rat calcitonin receptor; settings: Table 7, read-out: rCTR bind IC50
T1 construct: expressed in transfected cells; host or cells: BHK tk'ts 13 (transient, FuGENE 6), membranes
T1 sequence (P32214 25-479 isoform P32214-2 limits assumed): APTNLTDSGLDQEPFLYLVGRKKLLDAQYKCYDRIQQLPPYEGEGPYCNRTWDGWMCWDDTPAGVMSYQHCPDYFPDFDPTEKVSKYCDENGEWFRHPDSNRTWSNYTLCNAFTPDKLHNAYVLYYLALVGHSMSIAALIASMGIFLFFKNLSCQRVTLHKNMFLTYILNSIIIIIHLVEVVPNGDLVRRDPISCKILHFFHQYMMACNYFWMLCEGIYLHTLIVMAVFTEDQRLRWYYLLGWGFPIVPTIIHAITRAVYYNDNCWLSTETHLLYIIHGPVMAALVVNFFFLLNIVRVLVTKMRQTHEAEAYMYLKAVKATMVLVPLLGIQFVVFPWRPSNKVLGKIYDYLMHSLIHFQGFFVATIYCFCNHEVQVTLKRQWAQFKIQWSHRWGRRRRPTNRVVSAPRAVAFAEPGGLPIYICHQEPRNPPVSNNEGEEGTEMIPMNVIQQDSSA
Method in brief: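 Receptor source: membranes from transiently transfected BHK tk′ts 13 cells expressing rat calcitonin receptor, collected roughly 48 hours after transfection.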

[1] = biological target: T2, rat amylin receptor (rat calcitonin receptor + rat RAMP 3) (Rattus norvegicus, UniProt P32214+Q9JJ73); assay: ASSAY (VI) binding to the rat amylin receptor
T2 construct: expressed in transfected cells; host or cells: BHK tk'ts 13 (transient, FuGENE 6), membranes
T2 sequence (P32214 25-479 isoform P32214-2 limits assumed): T1 sequence (P32214 25-479 isoform P32214-2 limits assumed)
T2 sequence (Q9JJ73 23-147 partner): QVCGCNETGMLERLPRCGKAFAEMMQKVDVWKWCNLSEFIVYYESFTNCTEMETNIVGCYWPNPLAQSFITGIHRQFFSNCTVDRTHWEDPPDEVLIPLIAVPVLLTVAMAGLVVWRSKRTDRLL
Method in brief: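 Membranes for this rat amylin receptor binding assay came from BHK tk′ts 13 cells. The cells were transiently transfected with rat calcitonin receptor using the FuGENE® 6 reagent from Roche, as the manufacturer recommends. The cells were collected approximately 48 hours after transfection, and membranes were then prepared.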

Sprague Dawley (SD) rats = assay: ASSAY (I) efficacy testing on appetite (food intake) using an ad libitum fed rat model; assay type: in vivo; settings: rat, 30 nmol/kg
Description: Sprague Dawley (SD) rats from Taconic Europe, Denmark are used for the experiments. The rats have a body weight 200-250 g at the start of experiment. The rats arrive at least 10-14 days before start of experiment to allow acclimatization to experimental settings. During this period the animals are handled at least 2 times. After arrival rats are housed individually for one week in a reversed light/dark phase (meaning that lights are off during daytime and on during nighttime) for two weeks. Since rats are normally active and eat their major part of their daily food intake during the dark period, rats are dosed in the morning right before lights are turned off. This set-up results in the lowest data variation and highst test sensitivity. The experiment is conducted in the rats' home cages and rats have free access to food and water throughout the acclimatization period and the experiment period. Each dose of derivative is tested in a group of 5-8 rats. A vehicle group of 6-8 rats is included in each set of testing. Rats are dosed once according to body weight with a 0.01-3 mg/kg solution administered intraperitoneally (ip), orally (po) or subcutaneously (sc). The time of dosing is recorded for each group. After dosing, the rats are returned to their home cages, where they then have access to food and water. The food consumption is recorded individually continuously by online registration or manually every hour for 7 hours, and then after 24 h and sometimes 48 h. At the end of the experimental session, the animals are euthanized.
The individual data are recorded in Microsoft excel sheets. Outliers are excluded after applying the Grubbs statistical evaluation test for outliers, and the result is presented graphically using the GraphPad Prism program.

[2] = biological target: T3, human amylin receptor (membranes from Amylin 3(a)/CRE-luc cells) (Homo sapiens, UniProt O60896+P30988); assay: ASSAY (V) binding to the human amylin receptor (SPA, 125I-rat amylin);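 also: competition binding of cell membranes (35 ng/µL) mixed with SPA beads in 384-well plates at 40 µL total volume, read by scintillation counting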
T3 construct: expressed in transfected cells
T3 sequence (P30988 25-474): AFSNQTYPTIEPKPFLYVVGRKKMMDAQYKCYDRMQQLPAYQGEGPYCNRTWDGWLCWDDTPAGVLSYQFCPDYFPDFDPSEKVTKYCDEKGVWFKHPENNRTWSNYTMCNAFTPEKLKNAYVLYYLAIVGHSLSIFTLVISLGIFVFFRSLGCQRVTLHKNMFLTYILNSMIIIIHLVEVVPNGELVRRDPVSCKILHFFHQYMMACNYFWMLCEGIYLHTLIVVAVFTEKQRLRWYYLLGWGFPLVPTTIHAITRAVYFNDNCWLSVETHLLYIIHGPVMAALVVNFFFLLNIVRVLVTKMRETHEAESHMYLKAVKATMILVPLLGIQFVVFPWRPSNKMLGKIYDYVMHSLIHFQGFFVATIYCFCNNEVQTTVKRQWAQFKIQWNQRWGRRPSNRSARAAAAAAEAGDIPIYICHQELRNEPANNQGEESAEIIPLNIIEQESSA
T3 sequence (O60896 24-148 partner): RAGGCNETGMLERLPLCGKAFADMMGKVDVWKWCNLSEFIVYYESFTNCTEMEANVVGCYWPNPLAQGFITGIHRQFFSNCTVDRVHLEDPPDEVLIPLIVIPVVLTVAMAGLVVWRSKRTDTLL

[3] = ASSAY (IV) determination of solubility; assay type: physicochemical
Method in brief: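 UPLC read-out of polypeptide concentration after centrifugation. Samples: aqueous polypeptide stock ([…]) + 100 mM buffer 1:1, glycylglycine pH 3.0–5.0 or bistrispropane pH 6.0–8.0; 18 h, RT.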

Question: What does the source list for `CC[C@H](C)[C@H](NC(=O)[C@H](C)NC(=O)CNC(=O)[C@H](Cc1ccccc1)NC(=O)[C@H](CC(N)=O)NC(=O)[C@@H]1CCCN1C(=O)[C@H](CO)NC(=O)[C@H](CO)NC(=O)[C@H](Cc1c[nH]cn1)NC(=O)[C@H](CCCNC(=N)N)NC(=O)[C@H](CC(C)C)NC(=O)[C@H](Cc1ccccc1)NC(=O)[C@H](CC(=O)O)NC(=O)[C@H](C)NC(=O)[C@H](CC(C)C)NC(=O)[C@H](CCCNC(=N)N)NC(=O)[C@H](CCC(N)=O)NC(=O)[C@@H](NC(=O)[C@H](C)NC(=O)[C@@H]1CSSC[C@H](NC(=O)[C@@H](N)CCCCNC(=O)CC[C@H](NC(=O)CC[C@H](NC(=O)CCCCCCCCCCCCCCCCCCC(=O)O)C(=O)O)C(=O)O)C(=O)N[C@@H](CC(N)=O)C(=O)N[C@@H]([C@@H](C)O)C(=O)N[C@@H](C)C(=O)N[C@@H]([C@@H](C)O)C(=O)N1)[C@@H](C)O)C(=O)N1CCC[C@H]1C(=O)N[C@@H](CO)C(=O)N[C@@H](CO)C(=O)N[C@H](C(=O)N[C@@H](CC(N)=O)C(=O)N[C@H](C(=O)NCC(=O)N1CCC[C@H]1C(=O)N[C@@H](CCCNC(=N)N)C(=O)N[C@H](C(=O)N[C@@H](Cc1ccc(O)cc1)C(N)=O)[C@@H](C)O)C(C)C)[C@@H](C)O` [Example 130] (H-K([γGlu-γGlu-C20 diacid])CNTATCATQRLADFLRHSSPNFGAIPSSTNVGPRTY-NH2; disulfide 2-7 (inferred); N-terminus assumed)?
Answer: IC50 (rat calcitonin receptor): 0.223 µM; IC50 ([1]; Table 7, binding to rat amylin receptor, read-out: rAmylin-R bind IC50): 0.00093 µM; Ratio rCT/rAmylin binding ([1]; Table 7, rat binding selectivity, rCTR IC50 / rAmylin-R IC50): 239.5; Ratio rCT/rAmylin binding ([1]; Table 7a (preferred compounds), rat binding selectivity, rCTR IC50 / rAmylin-R IC50): 239.5; Ratio rCT/rAmylin binding ([1]; ratio of rCTR bind IC50 to rAmylin-R bind IC50): 239.5; Food intake reduction 0-24 h 30 nmol/kg (%) (Sprague Dawley (SD) rats; 0-24 h): 80%; Food intake reduction 24-48 h 30 nmol/kg (%) (Sprague Dawley (SD) rats; 24-48 h): 27%; Ratio hCT/hAmylin binding ([2]; Table 5, selectivity, hCTR bind IC50 / hAmylin-R bind IC50): 280.0; Ratio hCT/hAmylin binding ([2]; Table 5a, selectivity, hCTR bind IC50 / hAmylin-R bind IC50): 280.0; Ratio hCT/hAmylin binding ([2]; Table 5b, selectivity, hCTR bind IC50 / hAmylin-R bind IC50): 280.0; Ratio hCT/hAmylin binding ([2]; Table 5c, selectivity, hCTR bind IC50 / hAmylin-R bind IC50): 280.0; Ratio hCT/hAmylin binding ([2]; Table 7, human binding selectivity, included for comparison): 280.0; Ratio hCT/hAmylin binding ([2]; Table 7a (preferred compounds), human binding selectivity, included for comparison): 280.0; Ratio hCT/hAmylin binding ([2]; ratio of human calcitonin receptor binding IC50 to human amylin receptor binding IC50): 280.0; solubility at 18 h ([3]; bistrispropane buffer, pH 6.5, read-out: Solubility pH 6.5 Concentration): ≥ 200 µM; solubility at 18 h ([3]; bistrispropane buffer, pH 7.5, read-out: Solubility pH 7.5 Concentration): ≥ 200 µM; solubility at 18 h ([3]; bistrispropane buffer, pH 6.0, read-out: Solubility pH 6.0 Concentration): ≥ 200 µM; solubility at 18 h ([3]; bistrispropane buffer, pH 7.0, read-out: Solubility pH 7.0 Concentration): ≥ 200 µM; solubility at 18 h ([3]; bistrispropane buffer, pH 8.0, read-out: Solubility pH 8.0 Concentration): ≥ 200 µM; solubility at 18 h ([3]; glycylglycine buffer, pH 3.0, read-out: Solubility pH 3.0 Concentration): ≥ 200 µM; solubility at 18 h ([3]; glycylglycine buffer, pH 4.0, read-out: Solubility pH 4.0 Concentration): ≥ 200 µM; solubility at 18 h ([3]; glycylglycine buffer, pH 5.0, read-out: Solubility pH 5.0 Concentration): ≥ 200 µM
